Reference: patent US20070088031A1, “Novel chemical compounds” (priority 2003, published 2007)

biological target: GSK-3β (Homo sapiens, UniProt P49841); experiment: GSK-3 kinase scintillation proximity assay (SPA) with biotinylated glycogen synthase peptide; type: biochemical; conditions: 20 nM kinase, 2.5 uM ATP, 40 minutes at room temperature; pIC50 = -log IC50 in Molar; read-out: GSK-3 inhibition
From the text: The phosphorylated biotinylated peptide is then captured onto streptavidin coated scintillation proximity assay (SPA) beads from Amersham Technology, where the signal from the ^33P is amplified via the scintillant contained in the beads.
GSK-3β, is commercially available or may be cloned and expressed in E coli using standard techniques to produce soluble, active protein. The production of active protein involves purification in two steps using Metal Chelate and Ion Exchange Chromatography. Protein eluting from Ion Exchange provides >90% pure product that may then be concentrated for use in high throughput screening.
The kinase was assayed at a concentration of 20 nM final in 100 mM HEPES, pH 7.2 containing 10 mM magnesium chloride, 0.1 mg/mL bovine serum albumin, 1 mM dithiothreitol, 0.3 mg/mL heparin, 2.8 uM peptide substrate, 2.5 uM ATP, and 0.2 uCi/well γ^33P]-ATP. After 40 minutes incubation at room temperature, the reaction was stopped by addition of 100 mM EDTA and […] in 100 mM HEPES, pH7.2 followed by an additional solution of diluted Streptavidin coated SPA beads in PBS, pH 7.2 to give a final concentration of 0.25 mg of beads per assay well in a 96-well microtiter plate.
10 mM stock solutions of the compounds of the invention in 100% DMSO are generated as a first step in the screening process. The second step involves the creation of dose response plates where these compounds are diluted 10-fold in 100% DMSO to 1 mM concentrations and subsequently serially diluted 3-fold in 100% DMSO across the plate by automated liquid handling such that the final top concentration of inhibitor is 0.033 mM in the 30 uL kinase assay. The third step involves the creation of the assay plates. This is achieved by transferring 1 uL of the compounds to assay plates by automated liquid handling. The fourth step is to perform the assay as described and count the resulting plates in the Packard TopCount NXT microplate scintillation and luminescence counter. The final step is data acquisition and analysis where IC50 values are generated for each compound by normalizing curve data to the equation 100*(U1−C2)/(C1−C2) (where U1 is the cpm value, C2 is the background, and C1 is the maximum number of counts), then fitting the normalized data to the equation y=Vmax*(1−(x/(K+x))). The IC50 values were converted to pIC50 values, i.e., -log IC50 in Molar concentration.

GSK-3β, sequence (P49841 whole entry, species assumed): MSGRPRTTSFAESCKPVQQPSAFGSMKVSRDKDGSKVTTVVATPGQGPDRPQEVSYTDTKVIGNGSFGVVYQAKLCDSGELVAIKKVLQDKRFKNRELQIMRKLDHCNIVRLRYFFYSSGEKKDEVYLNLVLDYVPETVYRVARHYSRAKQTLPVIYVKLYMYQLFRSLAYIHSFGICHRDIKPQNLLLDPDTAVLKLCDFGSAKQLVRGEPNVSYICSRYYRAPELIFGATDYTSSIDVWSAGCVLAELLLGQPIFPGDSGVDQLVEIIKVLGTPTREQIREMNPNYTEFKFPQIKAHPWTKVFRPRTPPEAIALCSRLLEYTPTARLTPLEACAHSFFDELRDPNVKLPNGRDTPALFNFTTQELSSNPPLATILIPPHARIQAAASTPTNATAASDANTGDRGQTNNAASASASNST

First: COc1ccc(-c2cc3c(NC(=O)C4CCCC4)ncnc3o2)cc1 [Example 3, Cyclopentanecarboxylic acid [6-(4-methoxy-phenyl)-furo[2,3-d]pyrimidin-4-yl]-amide]
Second: COc1ccc(-c2cc3c(NC(=O)C4CCCCC4)ncnc3o2)cc1 [Example 6, Cyclohexanecarboxylic acid [6-(4-methoxy-phenyl)-furo[2,3-d]pyrimidin-4-yl]-amide]
The IC50 of the first is lower: 10 to 100 nM for the first, over 1000 nM for the second. The first is the more potent here.

Compared with `COc1ccc(-c2cc3c(NC(=O)CCSC)ncnc3o2)cc1` [Example 4, N-[6-(4-Methoxy-phenyl)-furo[2,3-d]pyrimidin-4-yl]-3-methylsulfanyl-propionamide], `O=C(Nc1ncnc2oc(-c3cccnc3)cc12)C1CCCC1` [Example 20, Cyclopentanecarboxylic acid (6-pyridin-3-yl-furo[2,3-d]pyrimidin-4-yl)-amide] is lower in IC50: 100 to 1000 nM for the first, under 10 nM for the second.
